Assays:
CK1α = molecular target: T1, CK1α (Homo sapiens, UniProt P48729+Q96SW2); experiment: Western blot, degradation of substrate protein in hPBMCs; format: cell-based
T1 construct: effects of the compounds of the present disclosure on the expression of target proteins in cells; endogenous in cells; host or cells: human PBMCs (Milecell Biotechnologies)

IKZF1 = molecular target: T2, IKZF1 (Homo sapiens, UniProt Q13422+Q96SW2); experiment: as above; format: cell-based
T2 construct: effects of the compounds of the present disclosure on the expression of target proteins in cells; endogenous in cells; host or cells: human PBMCs (Milecell Biotechnologies)

IKZF2 = molecular target: T3, IKZF2 (Homo sapiens, UniProt Q96SW2+Q9UKS7); experiment: as above; format: cell-based
T3 construct: effects of the compounds of the present disclosure on the expression of target proteins in cells; endogenous in cells; host or cells: human PBMCs (Milecell Biotechnologies)

IKZF3 = molecular target: T4, IKZF3 (Homo sapiens, UniProt Q96SW2+Q9UKT9); experiment: as above; format: cell-based
T4 construct: effects of the compounds of the present disclosure on the expression of target proteins in cells; endogenous in cells; host or cells: human PBMCs (Milecell Biotechnologies)

WEE1 = molecular target: T5, WEE1 (Homo sapiens, UniProt P30291+Q96SW2); experiment: as above; format: cell-based
T5 construct: effects of the compounds of the present disclosure on the expression of target proteins in cells; endogenous in cells; host or cells: human PBMCs (Milecell Biotechnologies)

GSPT1 = experiment: as above; format: cell-based, Human
[1] = molecular target: T6, human Cereblon WT GST-tagged protein (Homo sapiens, UniProt Q96SW2); experiment: CRBN-binding affinity, HTRF (CEREBLON BINDING kit); conditions: for inhibition at 0.5 µM: read-out: Inhibition Rate at 0.5 µM (%); for inhibition at 2 µM: read-out: Inhibition Rate at 2 µM (%)
T6 construct: purchased CISBIO 64BDCRBNPEH

[2] = tested on: Human myeloid monocytic leukemia cell (MV-4-11); experiment: Tumor cell proliferation inhibition (CellTiter-Meiluncell luminescent cell viability assay); conditions: MV4-11, 96 h; for inhibition at 0.01 µM: read-out: Inhibition Rate at 10 nM (%); for inhibition at 0.5 µM: read-out: Inhibition Rate at 500 nM (%)
[3] = Western blot, 24 hours of compound treatment, compounds tested at 50 nM and 500 nM (concentration for the table not stated)
[4] = 24 hours treatment, compounds at 50 nM and 500 nM (concentration behind the class not stated)

T5 sequence (P30291 whole entry): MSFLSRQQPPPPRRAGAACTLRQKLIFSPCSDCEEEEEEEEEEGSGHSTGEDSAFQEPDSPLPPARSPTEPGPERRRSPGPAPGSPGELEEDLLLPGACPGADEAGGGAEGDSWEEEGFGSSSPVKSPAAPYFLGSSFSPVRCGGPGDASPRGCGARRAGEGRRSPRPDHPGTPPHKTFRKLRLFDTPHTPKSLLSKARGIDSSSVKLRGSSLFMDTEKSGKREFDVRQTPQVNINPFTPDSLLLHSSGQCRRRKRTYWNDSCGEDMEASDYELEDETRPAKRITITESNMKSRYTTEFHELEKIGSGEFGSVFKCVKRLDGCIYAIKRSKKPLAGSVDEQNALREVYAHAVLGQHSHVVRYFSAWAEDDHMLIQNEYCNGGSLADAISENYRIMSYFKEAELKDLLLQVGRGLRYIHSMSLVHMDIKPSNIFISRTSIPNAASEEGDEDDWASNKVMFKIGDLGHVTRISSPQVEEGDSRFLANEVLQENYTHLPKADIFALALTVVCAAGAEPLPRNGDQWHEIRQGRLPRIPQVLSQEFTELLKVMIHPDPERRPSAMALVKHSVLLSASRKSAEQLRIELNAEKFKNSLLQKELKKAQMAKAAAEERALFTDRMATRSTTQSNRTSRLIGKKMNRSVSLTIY
T5 sequence (Q96SW2 whole entry): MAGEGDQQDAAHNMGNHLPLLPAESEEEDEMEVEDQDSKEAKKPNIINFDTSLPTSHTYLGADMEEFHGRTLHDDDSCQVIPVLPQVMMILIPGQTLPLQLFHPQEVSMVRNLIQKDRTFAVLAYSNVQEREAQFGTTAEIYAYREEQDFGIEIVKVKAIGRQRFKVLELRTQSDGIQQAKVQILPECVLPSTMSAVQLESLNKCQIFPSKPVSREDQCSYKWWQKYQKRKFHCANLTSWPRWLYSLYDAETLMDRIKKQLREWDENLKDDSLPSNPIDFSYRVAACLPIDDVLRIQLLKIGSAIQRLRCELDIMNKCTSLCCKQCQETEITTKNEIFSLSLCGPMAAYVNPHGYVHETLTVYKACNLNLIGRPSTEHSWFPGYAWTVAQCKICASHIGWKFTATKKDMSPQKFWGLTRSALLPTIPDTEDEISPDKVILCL
T5 sequence (Q16531 whole entry partner): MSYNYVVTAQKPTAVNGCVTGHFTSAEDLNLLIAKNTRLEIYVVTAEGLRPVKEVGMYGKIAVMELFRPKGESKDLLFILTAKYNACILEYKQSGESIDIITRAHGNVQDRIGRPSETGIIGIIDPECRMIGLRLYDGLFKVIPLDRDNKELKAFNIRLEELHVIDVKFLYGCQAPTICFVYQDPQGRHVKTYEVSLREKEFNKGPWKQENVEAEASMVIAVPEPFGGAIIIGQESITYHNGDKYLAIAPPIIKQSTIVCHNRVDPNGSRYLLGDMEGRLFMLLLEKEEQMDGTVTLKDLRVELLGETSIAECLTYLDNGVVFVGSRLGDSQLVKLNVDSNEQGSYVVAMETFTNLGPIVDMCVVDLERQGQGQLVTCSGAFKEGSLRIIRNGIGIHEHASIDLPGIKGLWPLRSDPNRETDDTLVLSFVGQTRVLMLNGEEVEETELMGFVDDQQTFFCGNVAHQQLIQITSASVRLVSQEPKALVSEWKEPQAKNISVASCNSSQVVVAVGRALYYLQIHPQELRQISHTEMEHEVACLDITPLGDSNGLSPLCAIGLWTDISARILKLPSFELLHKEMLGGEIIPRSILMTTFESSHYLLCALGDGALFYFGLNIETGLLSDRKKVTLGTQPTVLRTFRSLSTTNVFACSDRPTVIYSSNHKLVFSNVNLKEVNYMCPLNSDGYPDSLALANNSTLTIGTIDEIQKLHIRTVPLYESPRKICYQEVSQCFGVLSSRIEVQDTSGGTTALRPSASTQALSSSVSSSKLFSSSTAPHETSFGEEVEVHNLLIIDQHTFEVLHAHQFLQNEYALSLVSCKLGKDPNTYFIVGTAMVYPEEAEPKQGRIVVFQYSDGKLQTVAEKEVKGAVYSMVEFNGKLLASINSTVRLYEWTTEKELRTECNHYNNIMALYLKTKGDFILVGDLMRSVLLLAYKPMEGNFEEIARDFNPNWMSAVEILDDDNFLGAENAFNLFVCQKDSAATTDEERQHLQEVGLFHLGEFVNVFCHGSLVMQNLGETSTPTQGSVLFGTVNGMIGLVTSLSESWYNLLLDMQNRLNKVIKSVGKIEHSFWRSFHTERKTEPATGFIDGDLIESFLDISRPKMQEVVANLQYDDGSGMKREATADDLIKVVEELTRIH
T2 sequence (Q13422 whole entry): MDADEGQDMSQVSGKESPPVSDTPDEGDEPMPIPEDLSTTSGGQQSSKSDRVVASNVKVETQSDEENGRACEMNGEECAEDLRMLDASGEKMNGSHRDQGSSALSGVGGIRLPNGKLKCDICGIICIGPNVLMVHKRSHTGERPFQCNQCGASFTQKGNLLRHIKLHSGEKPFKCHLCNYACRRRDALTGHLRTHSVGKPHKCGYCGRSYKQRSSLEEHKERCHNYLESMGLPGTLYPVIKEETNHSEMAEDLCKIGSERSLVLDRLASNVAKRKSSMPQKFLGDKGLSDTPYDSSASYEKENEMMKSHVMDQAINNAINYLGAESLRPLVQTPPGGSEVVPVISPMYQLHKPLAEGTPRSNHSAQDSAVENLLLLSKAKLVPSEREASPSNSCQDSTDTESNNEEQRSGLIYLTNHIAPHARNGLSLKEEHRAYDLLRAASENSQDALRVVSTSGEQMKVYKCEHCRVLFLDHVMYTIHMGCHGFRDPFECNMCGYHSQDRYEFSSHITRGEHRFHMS
T2 sequence (Q96SW2 whole entry): as the sequence (Q96SW2 whole entry) above
T2 sequence (Q16531 whole entry partner): as the sequence (Q16531 whole entry partner) above
T3 sequence (Q9UKS7 whole entry): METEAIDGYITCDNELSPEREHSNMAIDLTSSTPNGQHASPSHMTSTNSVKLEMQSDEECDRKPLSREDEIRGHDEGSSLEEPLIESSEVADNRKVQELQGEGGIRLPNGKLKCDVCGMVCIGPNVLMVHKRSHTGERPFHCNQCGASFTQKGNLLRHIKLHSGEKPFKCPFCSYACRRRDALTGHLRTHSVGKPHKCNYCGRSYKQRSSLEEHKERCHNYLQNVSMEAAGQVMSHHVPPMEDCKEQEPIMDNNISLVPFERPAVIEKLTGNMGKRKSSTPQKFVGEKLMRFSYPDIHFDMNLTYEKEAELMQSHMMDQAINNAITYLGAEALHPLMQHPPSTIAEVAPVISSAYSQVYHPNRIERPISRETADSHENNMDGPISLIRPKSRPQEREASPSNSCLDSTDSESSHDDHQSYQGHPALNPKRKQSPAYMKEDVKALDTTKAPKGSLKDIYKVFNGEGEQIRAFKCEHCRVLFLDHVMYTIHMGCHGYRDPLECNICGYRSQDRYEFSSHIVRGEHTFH
T3 sequence (Q96SW2 whole entry): as the sequence (Q96SW2 whole entry) above
T3 sequence (Q16531 whole entry partner): as the sequence (Q16531 whole entry partner) above
T6 sequence (Q96SW2 whole entry): as the sequence (Q96SW2 whole entry) above
T1 sequence (P48729 whole entry): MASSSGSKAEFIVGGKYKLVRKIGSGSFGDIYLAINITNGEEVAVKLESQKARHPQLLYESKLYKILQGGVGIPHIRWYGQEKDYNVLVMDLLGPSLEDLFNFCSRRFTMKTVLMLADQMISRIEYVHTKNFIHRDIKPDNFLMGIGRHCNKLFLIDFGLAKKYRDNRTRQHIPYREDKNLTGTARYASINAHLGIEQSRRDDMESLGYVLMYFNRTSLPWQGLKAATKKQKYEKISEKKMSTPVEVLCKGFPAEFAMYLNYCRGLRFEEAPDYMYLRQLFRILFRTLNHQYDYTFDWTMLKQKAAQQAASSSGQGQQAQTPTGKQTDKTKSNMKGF
T1 sequence (Q96SW2 whole entry): as the sequence (Q96SW2 whole entry) above
T1 sequence (Q16531 whole entry partner): as the sequence (Q16531 whole entry partner) above
T4 sequence (Q9UKT9 whole entry): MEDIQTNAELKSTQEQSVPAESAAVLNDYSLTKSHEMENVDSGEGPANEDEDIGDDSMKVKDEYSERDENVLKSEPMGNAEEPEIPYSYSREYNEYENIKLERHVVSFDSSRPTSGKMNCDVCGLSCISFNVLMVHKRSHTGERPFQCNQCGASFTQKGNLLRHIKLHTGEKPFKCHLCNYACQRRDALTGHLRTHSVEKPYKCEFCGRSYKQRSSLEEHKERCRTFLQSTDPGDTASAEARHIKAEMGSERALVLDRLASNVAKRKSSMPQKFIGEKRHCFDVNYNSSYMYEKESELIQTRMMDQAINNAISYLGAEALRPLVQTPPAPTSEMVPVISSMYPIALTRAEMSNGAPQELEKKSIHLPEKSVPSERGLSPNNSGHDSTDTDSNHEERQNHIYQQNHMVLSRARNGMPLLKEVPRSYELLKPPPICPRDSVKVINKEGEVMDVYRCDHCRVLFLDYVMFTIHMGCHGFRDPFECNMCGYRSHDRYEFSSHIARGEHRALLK
T4 sequence (Q96SW2 whole entry): as the sequence (Q96SW2 whole entry) above
T4 sequence (Q16531 whole entry partner): as the sequence (Q16531 whole entry partner) above

Row | inhibition at 0.5 µM [1] [%] | inhibition at 2 µM [1] [%] | SMILES | CK1α substrate protein remaining % (CK1α; [3]) | IKZF 1 substrate protein remaining % (IKZF1; [3]) | IKZF2 substrate protein remaining % (IKZF2; [3]) | IKZF3 substrate protein remaining % (IKZF3; [3]) | Wee1 substrate protein remaining % (WEE1; [3]) | GSPT1 substrate protein remaining % (GSPT1; [3]) | inhibition at 0.01 µM [2] [%] | inhibition at 0.5 µM [2] [%] | CK1α substrate protein remaining % (CK1α; [4]) | IKZF 1 substrate protein remaining % (IKZF1; [4]) | IKZF2 substrate protein remaining % (IKZF2; [4]) | IKZF3 substrate protein remaining % (IKZF3; [4]) | Wee1 substrate protein remaining % (WEE1; [4]) | GSPT1 substrate protein remaining % (GSPT1; [4])
1 | 40 to 53 | 60 to 80 | O=C1CCC(N2Cc3c(CN4CCN(c5ccc(Cl)cc5Cl)CC4)cccc3C2=S)C(=O)N1 (stereo not drawn) [GT-08500, 3-(4-((4-(2,4-dichlorophenyl)piperazin-1-yl)methyl)-1-thioxoisoindolin-2-yl)piperidine-2,6-dione] | B (80%< substrate protein remaining %≤ 100%) | B (80%< substrate protein remaining %≤ 100%) | B (80%< substrate protein remaining %≤ 100%) | B (80%< substrate protein remaining %≤ 100%) | A (0% ≤ substrate protein remaining % ≤ 80%) | A (0% ≤ substrate protein remaining % ≤ 80%) | 30 to 40 | 40 to 60 | – | – | – | – | – | –
2 | 60 to 80 | 80 to 100 | Cc1cccc(N2CCN(Cc3ccc4c(c3)CN(C3CCC(=O)NC3=O)C4=S)CC2)n1 (stereo not drawn) [GT-09214, 3-(5-((4-(6-methylpyridin-2-yl)piperazin-1-yl)methyl)-1-thioxoisoindolin-2-yl)piperidine-2,6-dione] | B (80%< substrate protein remaining %≤ 100%) | B (80%< substrate protein remaining %≤ 100%) | B (80%< substrate protein remaining %≤ 100%) | B (80%< substrate protein remaining %≤ 100%) | B (80%< substrate protein remaining %≤ 100%) | A (0% ≤ substrate protein remaining % ≤ 80%) | 10 to 18 | 40 to 60 | – | – | – | – | – | –
3 | 30 to 40 | 60 to 80 | O=C1CCC(N2Cc3c(CN4CCC(c5ccco5)CC4)cccc3C2=S)C(=O)N1 (stereo not drawn) [GT-08310, 3-(4-((4-(furan-2-yl)piperidin-1-yl)methyl)-1-thioxoisoindolin-2-yl)piperidine-2,6-dione] | – | – | – | – | – | – | 40 to 60 | 60 to 80 | B (80%< substrate protein remaining %≤ 100%) | B (80%< substrate protein remaining %≤ 100%) | B (80%< substrate protein remaining %≤ 100%) | B (80%< substrate protein remaining %≤ 100%) | A (0% ≤ substrate protein remaining % ≤ 80%) | B (80%< substrate protein remaining %≤ 100%)
4 | 60 to 80 | 80 to 100 | O=C1CCC(N2Cc3cc(CN4CCN(c5ncccc5F)CC4)ccc3C2=S)C(=O)N1 (stereo not drawn) [GT-09220, 3-(5-((4-(3-fluoropyridin-2-yl)piperazin-1-yl)methyl)-1-thioxoisoindolin-2-yl)piperidine-2,6-dione] | B (80%< substrate protein remaining %≤ 100%) | A (0% ≤ substrate protein remaining % ≤ 80%) | A (0% ≤ substrate protein remaining % ≤ 80%) | B (80%< substrate protein remaining %≤ 100%) | A (0% ≤ substrate protein remaining % ≤ 80%) | B (80%< substrate protein remaining %≤ 100%) | 30 to 40 | 40 to 60 | – | – | – | – | – | –
5 | 60 to 80 | 80 to 100 | O=C1CCC(N2Cc3c(CN4CCN(c5ncnc6ccsc56)CC4)cccc3C2=S)C(=O)N1 (stereo not drawn) [GT-08970, 3-(4-((4-(thieno[3,2-d]pyrimidin-4-yl)piperazin-1-yl)methyl)-1-thioxoisoindolin-2-yl)piperidine-2,6-dione] | – | – | – | – | – | – | 18 to 25 | 40 to 60 | B (80%< substrate protein remaining %≤ 100%) | B (80%< substrate protein remaining %≤ 100%) | B (80%< substrate protein remaining %≤ 100%) | B (80%< substrate protein remaining %≤ 100%) | A (0% ≤ substrate protein remaining % ≤ 80%) | B (80%< substrate protein remaining %≤ 100%)
6 | 60 to 80 | 80 to 100 | O=C1CCC(N2Cc3cc(CN4CCN(c5cccc(C(F)(F)F)n5)CC4)ccc3C2=S)C(=O)N1 (stereo not drawn) [GT-09224, 3-(1-thioxo-5-((4-(6-(trifluoromethyl)pyridin-2-yl)piperazin-1-yl)methyl)isoindolin-2-yl)piperidine-2,6-dione] | A (0% ≤ substrate protein remaining % ≤ 80%) | B (80%< substrate protein remaining %≤ 100%) | B (80%< substrate protein remaining %≤ 100%) | A (0% ≤ substrate protein remaining % ≤ 80%) | B (80%< substrate protein remaining %≤ 100%) | A (0% ≤ substrate protein remaining % ≤ 80%) | -5 to 0 | 40 to 60 | – | – | – | – | – | –
7 | 40 to 53 | 60 to 80 | Cc1cc(C2CCN(Cc3cccc4c3CN(C3CCC(=O)NC3=O)C4=S)CC2)cs1 (stereo not drawn) [GT-08316, 3-(4-((4-(5-methylthiophen-3-yl)piperidin-1-yl)methyl)-1-thioxoisoindolin-2-yl)piperidine-2,6-dione] | – | – | – | – | – | – | 18 to 25 | 40 to 60 | B (80%< substrate protein remaining %≤ 100%) | B (80%< substrate protein remaining %≤ 100%) | B (80%< substrate protein remaining %≤ 100%) | B (80%< substrate protein remaining %≤ 100%) | A (0% ≤ substrate protein remaining % ≤ 80%) | B (80%< substrate protein remaining %≤ 100%)
8 | 30 to 40 | 60 to 80 | O=C1CCC(N2Cc3c(CN4CCN(c5ccc(C(F)(F)F)cc5)CC4)cccc3C2=S)C(=O)N1 (stereo not drawn) [GT-08262, 3-(1-thioxo-4-((4-(4-(trifluoromethyl)phenyl)piperazin-1-yl)methyl)isoindolin-2-yl)piperidine-2,6-dione] | A (0% ≤ substrate protein remaining % ≤ 80%) | B (80%< substrate protein remaining %≤ 100%) | B (80%< substrate protein remaining %≤ 100%) | B (80%< substrate protein remaining %≤ 100%) | A (0% ≤ substrate protein remaining % ≤ 80%) | A (0% ≤ substrate protein remaining % ≤ 80%) | 25 to 30 | 40 to 60 | – | – | – | – | – | –
9 | 60 to 80 | 80 to 100 | O=C1CCC(N2Cc3cc(CN4CCN(c5ncc(Cl)cc5Cl)CC4)ccc3C2=S)C(=O)N1 (stereo not drawn) [GT-09226, 3-(5-((4-(3,5-dichloropyridin-2-yl)piperazin-1-yl)methyl)-1-thioxoisoindolin-2-yl)piperidine-2,6-dione] | – | – | – | – | – | – | 30 to 40 | 40 to 60 | – | – | – | – | – | –
10 | – | – | O=C1CCC(N2Cc3c(CN4CCC(c5ccccc5)CC4)cccc3C2=S)C(=O)N1 (stereo not drawn) [GT-08506, 3-(4-((4-phenylpiperidin-1-yl)methyl)-1-thioxoisoindolin-2-yl)piperidine-2,6-dione] | B (80%< substrate protein remaining %≤ 100%) | B (80%< substrate protein remaining %≤ 100%) | A (0% ≤ substrate protein remaining % ≤ 80%) | A (0% ≤ substrate protein remaining % ≤ 80%) | A (0% ≤ substrate protein remaining % ≤ 80%) | A (0% ≤ substrate protein remaining % ≤ 80%) | 30 to 40 | 40 to 60 | – | – | – | – | – | –

Row | SMILES | inhibition at 0.5 µM [1] [%] | inhibition at 2 µM [1] [%] | CK1α substrate protein remaining % (CK1α; [3]) | IKZF 1 substrate protein remaining % (IKZF1; [3]) | IKZF2 substrate protein remaining % (IKZF2; [3]) | IKZF3 substrate protein remaining % (IKZF3; [3]) | Wee1 substrate protein remaining % (WEE1; [3]) | GSPT1 substrate protein remaining % (GSPT1; [3]) | inhibition at 0.01 µM [2] [%] | inhibition at 0.5 µM [2] [%] | CK1α substrate protein remaining % (CK1α; [4]) | IKZF 1 substrate protein remaining % (IKZF1; [4]) | IKZF2 substrate protein remaining % (IKZF2; [4]) | IKZF3 substrate protein remaining % (IKZF3; [4]) | Wee1 substrate protein remaining % (WEE1; [4]) | GSPT1 substrate protein remaining % (GSPT1; [4])
11 | O=C1CCC(N2Cc3c(CN4CCC(c5c[nH]c6cc(F)ccc56)CC4)cccc3C2=S)C(=O)N1 (stereo not drawn) [GT-08492, 3-(4-((4-(6-fluoro-1H-indol-3-yl)piperidin-1-yl)methyl)-1-thioxoisoindolin-2-yl)piperidine-2,6-dione] | 60 to 80 | 80 to 100 | B (80%< substrate protein remaining %≤ 100%) | B (80%< substrate protein remaining %≤ 100%) | B (80%< substrate protein remaining %≤ 100%) | B (80%< substrate protein remaining %≤ 100%) | A (0% ≤ substrate protein remaining % ≤ 80%) | B (80%< substrate protein remaining %≤ 100%) | 30 to 40 | 40 to 60 | – | – | – | – | – | –

— patent publication EP4745135A1 (Gluetacs Therapeutics (Shanghai) Co., Ltd., priority 2023, dated 2025)
